# Measurements as given in ChEMBL document CHEMBL1201861, “Genomics of Drug Sensitity in Cancer screening data, Wellcome Trust Sanger Institute”.
# Legend:
# Assay in all cases: cells
# KU812 cell line = assay type: functional, cell-based, Homo sapiens; conditions: Homo sapiens, KU812;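 note: growth inhibition of KU812 cells, read out with a cell viability assay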
# Description: SANGER: Inhibition of human KU812 cell growth in a cell viability assay.
# SK-MEL-1 = assay type: functional, cell-based, Homo sapiens; conditions: Homo sapiens, SK-MEL-1;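 note: growth inhibition of human SK-MEL-1 cells, read out by a cell viability assay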
# Description: SANGER: Inhibition of human SK-MEL-1 cell growth in a cell viability assay.
# DU-4475 = assay type: functional, cell-based, Homo sapiens; conditions: Homo sapiens, DU-4475
# Description: SANGER: Inhibition of human DU-4475 cell growth in a cell viability assay.
# ES1 = assay type: functional, cell-based, Homo sapiens; conditions: Homo sapiens, ES1;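 note: growth inhibition of ES1 cells, read out with a cell viability assay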
# Description: SANGER: Inhibition of human ES1 cell growth in a cell viability assay.
# HCE-T = assay type: functional, cell-based, Homo sapiens; conditions: Homo sapiens, HCE-T;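 note: cell viability assay read-out, reporting inhibition of HCE-T cell growth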
# Description: SANGER: Inhibition of human HCE-T cell growth in a cell viability assay.
# EW-3 = assay type: functional, cell-based, Homo sapiens; conditions: Homo sapiens, EW-3;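 note: cell viability assay read-out, IC50 reflects inhibition of growth of the EW-3 cells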
# Description: SANGER: Inhibition of human EW-3 cell growth in a cell viability assay.
# SH-4 = assay type: functional, cell-based; conditions: Homo sapiens;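 note: growth inhibition of SH-4 cells, read out with a cell viability assay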
# Description: SANGER: Inhibition of human SH-4 cell growth in a cell viability assay.
# NCI-H1395 = assay type: functional, cell-based, Homo sapiens; conditions: Homo sapiens, NCI-H1395;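 note: cell viability assay read-out quantifying reduced proliferation of human NCI-H1395 cells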
# Description: SANGER: Inhibition of human NCI-H1395 cell growth in a cell viability assay.
# MC116 = assay type: functional, cell-based, Homo sapiens; conditions: Homo sapiens, MC116;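 note: growth inhibition of MC116 cells, read out with a cell viability assay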
# Description: SANGER: Inhibition of human MC116 cell growth in a cell viability assay.
# HT = assay type: functional, cell-based, Homo sapiens; conditions: Homo sapiens, HT
# Description: SANGER: Inhibition of human HT cell growth in a cell viability assay.
# A388 = assay type: functional, cell-based; conditions: Homo sapiens;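 note: growth inhibition of human A388 cells, read out with a cell viability assay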
# Description: SANGER: Inhibition of human A388 cell growth in a cell viability assay.
# C2BBe1 = assay type: functional, cell-based, Homo sapiens; conditions: Homo sapiens, C2BBe1;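 note: growth inhibition of C2BBe1 cells, read out through a viability assay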
# Description: SANGER: Inhibition of human C2BBe1 cell growth in a cell viability assay.
# MZ1-PC = assay type: functional, cell-based, Homo sapiens; conditions: Homo sapiens, MZ1-PC;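 note: cell viability assay measuring growth inhibition of human MZ1-PC cells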
# Description: SANGER: Inhibition of human MZ1-PC cell growth in a cell viability assay.
# CAS-1 = assay type: functional, cell-based, Homo sapiens; conditions: Homo sapiens, CAS-1;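 note: growth inhibition of CAS-1 cells, measured with a cell viability assay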
# Description: SANGER: Inhibition of human CAS-1 cell growth in a cell viability assay.
# JVM-3 = assay type: functional, cell-based, Homo sapiens; conditions: Homo sapiens, JVM-3;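 note: growth inhibition of human JVM-3 cells, read out with a cell viability assay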
# Description: SANGER: Inhibition of human JVM-3 cell growth in a cell viability assay.
# COLO-684 = assay type: functional, cell-based, Homo sapiens; conditions: Homo sapiens, COLO-684
# Description: SANGER: Inhibition of human COLO-684 cell growth in a cell viability assay.
# COLO-824 = assay type: functional, cell-based, Homo sapiens; conditions: Homo sapiens, COLO-824
# Description: SANGER: Inhibition of human COLO-824 cell growth in a cell viability assay.
# RKO = assay type: functional, cell-based, Homo sapiens; conditions: Homo sapiens, RKO;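 note: growth inhibition of human RKO cells, read out with a cell viability assay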
# Description: SANGER: Inhibition of human RKO cell growth in a cell viability assay.
# EW-13 = assay type: functional, cell-based, Homo sapiens; conditions: Homo sapiens, EW-13; read-out: IC50;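 note: growth inhibition of EW-13 cells, read out with a cell viability assay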
# Description: SANGER: Inhibition of human EW-13 cell growth in a cell viability assay.
# NCI-H1648 = assay type: functional, cell-based, Homo sapiens; conditions: Homo sapiens, NCI-H1648;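 note: cell viability assay measuring inhibition of NCI-H1648 cell growth, from the Sanger screening data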
# Description: SANGER: Inhibition of human NCI-H1648 cell growth in a cell viability assay.
# Becker = assay type: functional, cell-based, Homo sapiens; conditions: Homo sapiens, Becker;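 note: growth inhibition of Becker cells, read out with a cell viability assay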
# Description: SANGER: Inhibition of human Becker cell growth in a cell viability assay.
# ETK-1 = assay type: functional, cell-based, Homo sapiens; conditions: Homo sapiens, ETK-1;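 note: growth inhibition of human ETK-1 cells, read out with a cell viability assay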
# Description: SANGER: Inhibition of human ETK-1 cell growth in a cell viability assay.
# SF-268 = assay type: functional, cell-based, Homo sapiens; conditions: Homo sapiens, SF-268;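 note: growth inhibition of SF-268 cells determined with a cell viability assay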
# Description: SANGER: Inhibition of human SF268 cell growth in a cell viability assay.
# NCI-H82 = assay type: functional, cell-based, Homo sapiens; conditions: Homo sapiens, NCI-H82;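 note: growth inhibition of NCI-H82 cells, measured with a cell viability readout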
# Description: SANGER: Inhibition of human NCI-H82 cell growth in a cell viability assay.
# GB-1 = assay type: functional, cell-based, Homo sapiens; conditions: Homo sapiens, GB-1;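 note: growth of GB-1 cells judged by a viability assay, IC50 marks the concentration inhibiting growth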
# Description: SANGER: Inhibition of human GB-1 cell growth in a cell viability assay.
# SW 954 = assay type: functional, cell-based, Homo sapiens; conditions: Homo sapiens, SW 954;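 note: growth inhibition of SW954 human cancer cells, read out as cell viability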
# Description: SANGER: Inhibition of human SW954 cell growth in a cell viability assay.
# NCI-H1155 = assay type: functional, cell-based, Homo sapiens; conditions: Homo sapiens, NCI-H1155;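 note: cell growth inhibition measured by a viability assay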
# Description: SANGER: Inhibition of human NCI-H1155 cell growth in a cell viability assay.
# TE-12 = assay type: functional, cell-based, Homo sapiens; conditions: Homo sapiens, TE-12;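 note: growth inhibition of TE-12 cells, read out by a cell viability assay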
# Description: SANGER: Inhibition of human TE-12 cell growth in a cell viability assay.
# SW684 = assay type: functional, cell-based, Homo sapiens; conditions: Homo sapiens, SW684; read-out: IC50;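 note: growth inhibition of human SW684 cells, measured by a cell viability assay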
# Description: SANGER: Inhibition of human SW684 cell growth in a cell viability assay.
# EOL1 = assay type: functional, cell-based, Homo sapiens; conditions: Homo sapiens, EOL1;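 note: growth inhibition of EoL-1 cells, read out by a cell viability assay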
# Description: SANGER: Inhibition of human EoL-1-cell cell growth in a cell viability assay.
# Ramos-2G6-4C10 = assay type: functional, cell-based, Homo sapiens; conditions: Homo sapiens, Ramos-2G6-4C10;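 note: growth inhibition of the cell line, measured by a cell viability read-out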
# Description: SANGER: Inhibition of human Ramos-2G6-4C10 cell growth in a cell viability assay.
# LS-513 = assay type: functional, cell-based, Homo sapiens; conditions: Homo sapiens, LS-513
# Description: SANGER: Inhibition of human LS-513 cell growth in a cell viability assay.
# HDLM-2 = assay type: functional, cell-based, Homo sapiens; conditions: Homo sapiens, HDLM-2;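 note: cell viability assay measuring suppression of HDLM-2 proliferation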
# Description: SANGER: Inhibition of human HDLM-2 cell growth in a cell viability assay.
# A101D = assay type: functional, cell-based, Homo sapiens; conditions: Homo sapiens, A101D;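 note: growth inhibition of the cell line, measured with a viability assay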
# Description: SANGER: Inhibition of human A101D cell growth in a cell viability assay.
# ACN = assay type: functional, cell-based, Homo sapiens; conditions: Homo sapiens, ACN;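 note: growth inhibition of the human ACN cell line, read out via cell viability testing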
# Description: SANGER: Inhibition of human ACN cell growth in a cell viability assay.
# KALS-1 = assay type: functional, cell-based, Homo sapiens; conditions: Homo sapiens, KALS-1; read-out: IC50;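 note: growth inhibition of KALS-1 cells, determined with a cell viability assay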
# Description: SANGER: Inhibition of human KALS-1 cell growth in a cell viability assay.
# MMAC-SF = assay type: functional, cell-based; conditions: Homo sapiens;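 note: growth inhibition of human MMAC-SF cells, read out with a cell viability assay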
# Description: SANGER: Inhibition of human MMAC-SF cell growth in a cell viability assay.
# BE-13 = assay type: functional, cell-based, Homo sapiens; conditions: Homo sapiens, BE-13;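 note: growth inhibition of human BE-13 cells, measured with a cell viability assay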
# Description: SANGER: Inhibition of human BE-13 cell growth in a cell viability assay.
# BB30-HNC = assay type: functional, cell-based, Homo sapiens; conditions: Homo sapiens, BB30-HNC;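 note: growth inhibition of the cultured cell line, read out by a cell viability assay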
# Description: SANGER: Inhibition of human BB30-HNC cell growth in a cell viability assay.
# SBC-1 = assay type: functional, cell-based, Homo sapiens; conditions: Homo sapiens, SBC-1;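 note: cell viability assay measuring growth inhibition of the SBC-1 cell line, IC50 being the concentration that halves growth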
# Description: SANGER: Inhibition of human SBC-1 cell growth in a cell viability assay.
# D283 Med = assay type: functional, cell-based, Homo sapiens; conditions: Homo sapiens, D283 Med
# Description: SANGER: Inhibition of human D-283MED cell growth in a cell viability assay.
# ES8 = assay type: functional, cell-based, Homo sapiens; conditions: Homo sapiens, ES8;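 note: growth inhibition of human ES8 cells, read out with a cell viability assay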
# Description: SANGER: Inhibition of human ES8 cell growth in a cell viability assay.
# LS-123 = assay type: functional, cell-based, Homo sapiens; conditions: Homo sapiens, LS-123
# Description: SANGER: Inhibition of human LS-123 cell growth in a cell viability assay.
# ATN-1 = assay type: functional, cell-based, Homo sapiens; conditions: Homo sapiens, ATN-1;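 note: growth inhibition of human ATN-1 cells, read out with a cell viability assay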
# Description: SANGER: Inhibition of human ATN-1 cell growth in a cell viability assay.
# TK-10 = assay type: functional, cell-based, Homo sapiens; conditions: Homo sapiens, TK-10;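 note: growth inhibition of TK-10 cells, read out in a cell viability assay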
# Description: SANGER: Inhibition of human TK10 cell growth in a cell viability assay.
# ML-2 = assay type: functional, cell-based, Homo sapiens; conditions: Homo sapiens, ML-2;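 note: growth inhibition of ML-2 cells, measured with a cell viability readout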
# Description: SANGER: Inhibition of human ML-2 cell growth in a cell viability assay.
# SF-126 = assay type: functional, cell-based, Homo sapiens; conditions: Homo sapiens, SF-126;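 note: growth inhibition of human SF126 cells, read out with a cell viability assay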
# Description: SANGER: Inhibition of human SF126 cell growth in a cell viability assay.
# A498 = assay type: functional, cell-based, Homo sapiens; conditions: Homo sapiens, A498;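 note: growth inhibition of human A498 cells, read out with a cell viability assay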
# Description: SANGER: Inhibition of human A498 cell growth in a cell viability assay.
# TE-11 = assay type: functional, cell-based; conditions: Homo sapiens;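 note: growth inhibition of human TE-11 cells, read out by a cell viability assay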
# Description: SANGER: Inhibition of human TE-11 cell growth in a cell viability assay.
# A704 = assay type: functional, cell-based; conditions: Homo sapiens;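 note: growth inhibition of human A704 cells, read out with a cell viability assay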
# Description: SANGER: Inhibition of human A704 cell growth in a cell viability assay.
smiles,measurement,setting,value
Nc1ccccc1NC(=O)c1ccc(CNC(=O)OCc2cccnc2)cc1 [ENTINOSTAT],IC50,KU812 cell line,1.7 µM
same,IC50,SK-MEL-1,> 5 µM
same,IC50,DU-4475,0.587 µM
same,IC50,ES1,0.113 µM
same,IC50,HCE-T,0.872 µM
same,IC50,EW-3,> 5 µM
same,IC50,SH-4,1.02 µM
same,IC50,NCI-H1395,> 5 µM
same,IC50,MC116,1.44 µM
same,IC50,HT,2.1 µM
same,IC50,A388,1.52 µM
same,IC50,C2BBe1,> 5 µM
same,IC50,MZ1-PC,3.62 µM
same,IC50,CAS-1,> 5 µM
same,IC50,JVM-3,> 5 µM
same,IC50,COLO-684,> 5 µM
same,IC50,COLO-824,> 5 µM
same,IC50,RKO,3.77 µM
same,IC50,EW-13,> 5 µM
same,IC50,NCI-H1648,> 5 µM
same,IC50,Becker,4.37 µM
same,IC50,ETK-1,1.79 µM
same,IC50,SF-268,3.48 µM
same,IC50,NCI-H82,1.63 µM
same,IC50,GB-1,1.94 µM
same,IC50,SW 954,0.76 µM
same,IC50,NCI-H1155,3.71 µM
same,IC50,TE-12,3.52 µM
same,IC50,SW684,> 5 µM
same,IC50,EOL1,> 5 µM
same,IC50,Ramos-2G6-4C10,0.439 µM
same,IC50,LS-513,0.445 µM
same,IC50,HDLM-2,1.68 µM
same,IC50,A101D,0.403 µM
same,IC50,ACN,0.51 µM
same,IC50,KALS-1,0.705 µM
same,IC50,MMAC-SF,> 5 µM
same,IC50,BE-13,0.497 µM
same,IC50,BB30-HNC,1.39 µM
same,IC50,SBC-1,1.43 µM
same,IC50,D283 Med,> 5 µM
same,IC50,ES8,0.36 µM
same,IC50,LS-123,2.35 µM
same,IC50,ATN-1,0.306 µM
same,IC50,TK-10,1.83 µM
same,IC50,ML-2,2.33 µM
same,IC50,SF-126,2.33 µM
NC(=O)c1ccc(N(C(N)=O)c2c(F)cccc2F)nc1-c1ccc(F)cc1F [VX-702],IC50,A498,> 2 µM
same,IC50,KU812 cell line,0.125 µM
same,IC50,SK-MEL-1,> 2 µM
same,IC50,DU-4475,> 2 µM
same,IC50,TE-11,> 2 µM
same,IC50,ES1,> 2 µM
same,IC50,HCE-T,> 2 µM
same,IC50,A704,> 2 µM
same,IC50,EW-3,0.666 µM
same,IC50,SH-4,> 2 µM
same,IC50,NCI-H1395,> 2 µM
same,IC50,MC116,> 2 µM
same,IC50,HT,> 2 µM
same,IC50,A388,> 2 µM
same,IC50,C2BBe1,> 2 µM
same,IC50,MZ1-PC,> 2 µM
same,IC50,CAS-1,> 2 µM
same,IC50,JVM-3,> 2 µM
same,IC50,COLO-684,> 2 µM
same,IC50,COLO-824,> 2 µM
same,IC50,RKO,> 2 µM
same,IC50,EW-13,> 2 µM
same,IC50,NCI-H1648,> 2 µM
same,IC50,Becker,> 2 µM
same,IC50,ETK-1,> 2 µM
same,IC50,SF-268,> 2 µM
same,IC50,NCI-H82,> 2 µM
same,IC50,GB-1,> 2 µM
same,IC50,SW 954,> 2 µM
same,IC50,NCI-H1155,> 2 µM
same,IC50,TE-12,> 2 µM
same,IC50,SW684,> 2 µM
same,IC50,Ramos-2G6-4C10,> 2 µM
same,IC50,LS-513,> 2 µM
same,IC50,HDLM-2,> 2 µM
same,IC50,A101D,> 2 µM
same,IC50,ACN,> 2 µM
same,IC50,KALS-1,> 2 µM
same,IC50,MMAC-SF,> 2 µM
same,IC50,BE-13,> 2 µM
same,IC50,BB30-HNC,> 2 µM
same,IC50,SBC-1,0.236 µM
same,IC50,D283 Med,> 2 µM
same,IC50,ES8,> 2 µM
same,IC50,LS-123,> 2 µM
same,IC50,ATN-1,> 2 µM
same,IC50,TK-10,> 2 µM
same,IC50,ML-2,0.227 µM
same,IC50,SF-126,> 2 µM
CC1=C(/C=C/C(C)=C/C=C/C(C)=C/C(=O)O)C(C)(C)CCC1 [TRETINOIN],IC50,A498,> 10 µM
same,IC50,KU812 cell line,0.536 µM
same,IC50,SK-MEL-1,> 10 µM
same,IC50,DU-4475,> 10 µM
same,IC50,TE-11,> 10 µM
same,IC50,ES1,> 10 µM
same,IC50,HCE-T,> 10 µM
same,IC50,A704,> 10 µM
same,IC50,EW-3,0.48 µM
same,IC50,SH-4,> 10 µM
same,IC50,NCI-H1395,> 10 µM
same,IC50,MC116,> 10 µM
same,IC50,HT,> 10 µM
same,IC50,A388,> 10 µM
same,IC50,C2BBe1,> 10 µM
same,IC50,MZ1-PC,> 10 µM
same,IC50,CAS-1,> 10 µM
same,IC50,JVM-3,> 10 µM
same,IC50,COLO-684,> 10 µM
same,IC50,COLO-824,> 10 µM
same,IC50,RKO,> 10 µM
same,IC50,EW-13,7.61 µM
same,IC50,NCI-H1648,9.74 µM
same,IC50,Becker,> 10 µM
same,IC50,ETK-1,> 10 µM
same,IC50,SF-268,> 10 µM
same,IC50,NCI-H82,> 10 µM
same,IC50,GB-1,> 10 µM
same,IC50,SW 954,> 10 µM
same,IC50,NCI-H1155,> 10 µM
same,IC50,TE-12,> 10 µM
same,IC50,SW684,> 10 µM
same,IC50,Ramos-2G6-4C10,> 10 µM
same,IC50,LS-513,> 10 µM
same,IC50,HDLM-2,> 10 µM
same,IC50,A101D,> 10 µM
same,IC50,ACN,1.65 µM
same,IC50,KALS-1,> 10 µM
same,IC50,MMAC-SF,> 10 µM
same,IC50,BE-13,> 10 µM
same,IC50,BB30-HNC,> 10 µM
same,IC50,SBC-1,> 10 µM
same,IC50,D283 Med,0.283 µM
same,IC50,ES8,> 10 µM
same,IC50,LS-123,> 10 µM
same,IC50,ATN-1,0.0303 µM
same,IC50,TK-10,> 10 µM
same,IC50,ML-2,4 µM
same,IC50,SF-126,> 10 µM
